pIC50: −log10 of the molar value.
Legend:
HDAC (HeLa cell extract) = test: Primary assay: deacetylase activity, HeLa cell extract as source of HDAC; format: biochemical, human
Excerpt: Briefly, this assay relies on the release of radioactive acetate from a radioactively labelled histone fragment by the action of HDAC enzyme. Test compounds, which inhibit HDAC, reduce the yield of radioactive acetate. Signal (e.g., scintillation counts) measured in the presence and absence of a test compound provide an indication of that compound's ability to inhibit HDAC activity. Decreased activity indicates increased inhibition by the test compound.
The histone fragment was an N-terminal sequence from histone H4, and it was labelled with radioactively labelled acetyl groups using tritiated acetylcoenzyme A (coA) in conjunction with an enzyme which is the histone acetyltransferase domain of the transcriptional coactivator p300. 0.33 mg of peptide H4 (the N-terminal 20 amino acids of histone H4, synthesized using conventional methods) were incubated with His6-tagged p300 histone acetyltransferase domain (amino acids 1195-1673, expressed in E coli strain BLR(DE3)pLysS (Novagen, Cat. No. 69451-3) and 3H-acetyl coA (10 μL of 3.95 Ci/mmol; from Amersham) in a total volume of 300 μL of HAT buffer (50 mM TrisCl pH 8, 5% glycerol, 50 mM KCl, 0.1 mM ethylenediaminetetraacetic acid (EDTA), 1 mM dithiothreitol (DTT) and 1 mM 4-(2-aminoethyl)-benzenesulfonylfluoride (AEBSF)). The mixture was incubated at 30° C. for 45 min after which the His-p300 was removed using nickel-trinitriloacetic acid agarose (Qiagen, Cat No. 30210). The acetylated peptide was then separated from free acetyl coA by size exclusion chromatography on Sephadex G-15 (Sigma G-15-120), using distilled H2O as the mobile phase.
After purification of the radiolabelled histone fragment, it was incubated with a source of HDAC (e.g., an extract of HeLa cells (a rich source of HDAC), recombinantly produced HDAC1 or HDAC2) and any released acetate was extracted into an organic phase and quantitatively determined using scintillation counting. By including a test compound with the source of HDAC, that compound's ability to inhibit the HDAC was determined.
Two cell volumes of extraction buffer were used, and particulate material was centrifuged out (20800 g, 4° C., 10 min). The supernatant extract having deacetylase activity was aliquotted and frozen for storage.
A source of HDAC (e.g., 2 μL of crude HeLa extract, 5 μL of HDAC1 or HDAC2; in elution buffer, as above) was incubated with 3 μL of radioactively labelled peptide along with appropriate dilutions of candidate compounds (1.5 μL) in a total volume of 150 μL of buffer (20 mM Tris pH 7.4, 10% glycerol). The reaction was carried out at 37° C. for one hour, after which the reaction was stopped by adding 20 μL of 1 M HCl/0.4 M sodium acetate. Then, 750 μL of ethyl acetate was added, the samples vortexed and, after centrifugation (14000 rpm, 5 min), 600 μL from the upper phase were transferred to a vial containing 3 mL of scintillation liquid (UltimaGold, Packard, Cat. No. 6013329). Radioactivity was measured using a Tri-Carb 2100TR Liquid Scintillation Analyzer (Packard).
Percent activity (% activity) for each test compound was calculated as: % activity={(S^C−B)/(S^o−B)}×100 wherein S^c denotes signal measured in the presence of enzyme and the compound being tested, S^o denotes signal measured in the presence of enzyme but in the absence of the compound being tested, and B denotes the background signal measured in the absence of both enzyme and compound being tested.

[1] = test system: K11 HPV E7 transformed human keratinocyte line; test: Secondary assay: cell proliferation WST-1, K11; format: cell-based; conditions: K11, 48 h, read-out: Cell Proliferation Inhibition WST-1 IC50, K11
Method: (§1) Compounds with HDAC inhibition activity, as determined using the primary assay, were subsequently evaluated using secondary cell-based assays. The following cell lines were used:
K11—HPV E7 transformed human keratinocyte line provided by Pidder Jansen-Duerr, Institut für Biomedizinische Alternsforschung, Innsbruck, Austria.
(§2) Cells were plated in 96-well plates at 3-10×10^3 cells/well in 100 μL of culture medium. The following day, different concentrations of candidate compounds were added and the cells incubated at 37° C. for 48 h. Subsequently, 10 μL/well of WST-1 reagent was added and the cells reincubated for 1 hour. After the incubation time, absorbance was measured.
WST-1 is a tetrazolium salt which is cleaved to formazan dye by cellular enzymes. An expansion in the number of viable cells results in an increase in the overall activity of mitochondrial dehydrogenases in the sample. […] The formazan dye produced is quantified by a scanning multiwell spectrophotometer by measuring the absorbance of the dye solution at 450 nm wavelength (reference wavelength 690 nm).
IC50 values were calculated using the software package Prism 3.0 (GraphPad Software Inc., San Diego, Calif.), setting top value at 100 and bottom value at 0.

JURKAT human T-cell line = test: Secondary assay: cell proliferation WST-1, Jurkat; format: cell-based; conditions: 48 h, read-out: Cell Proliferation Inhibition WST-1 IC50, Jurkat
Method: as §1
JURKAT—Human T-cell line (ATCC no. TIB-152).
as §2
(§3) WST-1 is a tetrazolium salt which is cleaved to formazan dye by cellular enzymes. […] The formazan dye produced is quantified by a scanning multiwell spectrophotometer by measuring the absorbance of the dye solution at 450 nm wavelength (reference wavelength 690 nm).
(§4) Percent activity (% activity) in reducing the number of viable cells was calculated for each test compound as: % activity={(S^C−B)/(S^o−B)}×100 wherein S^C denotes signal measured in the presence of the compound being tested, S^o denotes signal measured in the absence of the compound being tested, and B denotes the background signal measured in blank wells containing medium only. […] IC50 values were calculated using the software package Prism 3.0 (GraphPad Software Inc., San Diego, Calif.), setting top value at 100 and bottom value at 0.

HeLa cells = test: Secondary assay: cell proliferation WST-1, HeLa; format: cell-based; conditions: Homo sapiens, 48 h, read-out: Cell Proliferation Inhibition WST-1 IC50, HeLa
Method: as §1, §2, §3, §4

**Q.** Which “HDAC Inhibition, HeLa (percent activity)” value (HDAC (HeLa cell extract); @ 1.0 μM) does the source give for `CN(C)c1ccc(NC(=O)COCC(=O)NO)cc1` [Compound 4] here?
**A.** 0% @ 1 μM

**Q.** `O=C(CCSCCNC(=O)c1ccc2ccccc2c1)NO` [Compound 6, E-Naphthalene-2-carboxylic acid [2-(2-hydroxycarbamoylethylsulfanyl)ethyl]amide] was tested. Which “HDAC Inhibition, HeLa (percent activity)” value (HDAC (HeLa cell extract); @ 500 nM) did it give?
**A.** 43% @ 500 nM

**Q.** `CN(C)c1ccc(NC(=O)CSCC(=O)NO)cc1` [Compound 2] was tested. Which “HDAC Inhibition, HeLa (percent activity)” value (HDAC (HeLa cell extract); @ 500 nM) did it give?
**A.** 26% @ 500 nM

**Q.** What does the source list for `O=C(/C=C/C#Cc1cccc(NS(=O)(=O)c2ccccc2)c1)NO` [Oxamflatin, (2E)-5-[3-[(phenylsulfonyl)amino]phenyl]-pent-2-en-4-ynohydroxamic acid, reference compound]?
**A.** pIC50 [1]: 5.32; pIC50 (JURKAT human T-cell line): 6.77

**Q.** `O=C(/C=C/C=C/c1ccccc1)NCCSCCC(=O)NO` [Compound 5, (2E)(4E)-5-Phenylpenta-2,4-dienoic acid [2-(2-hydroxycarbamoylethylsulfanyl)ethyl]amide] was tested. Which “HDAC Inhibition, HeLa (percent activity)” value (HDAC (HeLa cell extract); @ 500 nM) did it give?
**A.** 74% @ 500 nM

**Q.** What about the pIC50 (HeLa cells) of the same compound?
**A.** 4.06

**Q.** With `O=C(/C=C/C=C/c1ccccc1)NCCCOc1ccc(CC(=O)NO)cc1` [Compound 7, (2E,4E)-N-(3-{4-[2-(Hydroxyamino)-2-oxoethyl]phenoxy}propyl)-5-phenyl-2,4-pentadienamide] as the compound, how does the “HDAC Inhibition, HeLa (percent activity)” value (HDAC (HeLa cell extract); @ 500 nM) read?
**A.** 7% @ 500 nM

**Q.** `O=C(/C=C/c1ccccc1)Nc1cccc(OCC(=O)NO)c1` [Compound 8, (E)-N-{3-[2-(Hydroxyamino)-2-oxoethoxy]phenyl}-3-phenyl-2-propenamide] was tested. Which pIC50 (HDAC (HeLa cell extract); unit inferred, read-out: HDAC Inhibition IC50, HeLa) did it give?
**A.** 6.12

**Q.** What about the pIC50 (HeLa cells) of the same compound?
**A.** 4.60

**Q.** And the pIC50 [1]?
**A.** 5.98

**Q.** And the pIC50 (JURKAT human T-cell line)?
**A.** 4.90

**Q.** `CC(C)c1ccc(NC(=O)COCC(=O)NO)cc1` [Compound 1] was tested. Which “HDAC Inhibition, HeLa (percent activity)” value (HDAC (HeLa cell extract); @ 1.0 μM) did it give?
**A.** 16% @ 1.0 μM

Reference: patent publication US6960685B2 (TopoTarget UK Limited, priority 2000, dated 2005)
